From patent publication US20240068008A1, “RNase for Improved Microbial Detection and Antimicrobial Susceptibility Testing” (MicrobeDX Inc., priority 2016, published 2024)

Assays:
[1] = system: Escherichia coli; assay: AST with and without RNase, rRNA levels relative to control at 60 or 90 minutes; assay type: cell-based; conditions: susceptible E. coli isolates, 60 or 90 minutes at 37° C., RNase added to the growth medium
Procedure: Similar results have been observed for other Gram-negative bacteria such as Kiebsiella pneumoniae, Proteus mirabilis, and Pseudomonas aeruginosa using the same conditions and RNase concentrations as for E. coli.
Susceptible (S) and resistant (R) E. coli isolates were incubated in growth medium with ampicillin for 60 or 90 minutes at 37° C. with (+) and without (−) RNase.
Susceptible (S) and resistant (R) E. coli isolates were incubated in growth medium with cefazolin for 60 or 90 minutes at 37° C. with (+) and without (−) 1 μg/ml RNase.
Susceptible (S) and resistant (R) E. coli isolates were incubated in growth medium with ceftriaxone for 60 or 90 minutes at 37° C. with (+) and without (−) RNase.

[2] = system: K. pneumoniae; assay: as above; assay type: cell-based; conditions: susceptible K. pneumoniae isolates, 60 or 90 minutes at 37° C., RNase added to the growth medium
Procedure: Susceptible (S) and resistant (R) K. pneumoniae isolates were incubated in growth medium with cefepime for 60 or 90 minutes at 37° C. with (+) and without (−) 1 μg/ml RNase.
Susceptible (S) and resistant (R) K. pneumoniae isolates were incubated in growth medium with ceftriaxone for 60 or 90 minutes at 37° C. with (+) and without (−) RNase.

SMILES | rRNA levels relative to control (growth medium without antibiotic) [1] | rRNA levels relative to control (growth medium without antibiotic) [2]
Cc1nnc(SCC2=C(C(=O)O)N3C(=O)[C@@H](NC(=O)Cn4cnnn4)[C@H]3SC2)s1 [cefazolin] | significant reduction in rRNA | 
CO/N=C(\C(=O)N[C@@H]1C(=O)N2C(C(=O)[O-])=C(C[N+]3(C)CCCC3)CS[C@H]12)c1csc(N)n1 [cefepime] |  | significant reduction in rRNA
CO/N=C(\C(=O)N[C@@H]1C(=O)N2C(C(=O)O)=C(CSc3nc(=O)c(=O)[nH]n3C)CS[C@H]12)c1csc(N)n1 [ceftriaxone] | significant reduction in rRNA | significant reduction in rRNA
CC1(C)S[C@@H]2[C@H](NC(=O)[C@H](N)c3ccccc3)C(=O)N2[C@H]1C(=O)O [ampicillin] | significant reduction in rRNA | 
